{"source": "patent US6372752B1", "about": "(priority 2000, dated 2002)", "key": {"[1]": {"molecular_target": "InhA (Mycobacterium tuberculosis, UniProt P9WGR1)", "sequence (P9WGR1 whole entry, looked up)": "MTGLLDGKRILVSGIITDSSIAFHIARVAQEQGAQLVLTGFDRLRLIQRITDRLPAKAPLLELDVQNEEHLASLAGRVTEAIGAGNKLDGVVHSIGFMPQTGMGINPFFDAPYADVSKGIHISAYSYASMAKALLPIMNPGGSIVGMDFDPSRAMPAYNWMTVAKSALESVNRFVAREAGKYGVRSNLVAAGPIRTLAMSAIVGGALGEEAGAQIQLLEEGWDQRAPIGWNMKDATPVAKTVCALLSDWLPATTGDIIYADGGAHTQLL", "assay": "InhA inhibition assay (NADH consumption, absorbance at 340)", "type": "biochemical", "details": "for inhibition at 40 µM: 40 μM compound, read-out: Percentage Inhibition (@ 40 μM)"}, "[2]": {"system": "Bacillus Calmet-Guerin (BCG), Pasteur strain, of Mycobacterium bovis", "assay": "microbe, parasite or virus in culture", "type": "cell-based", "details": "Mycobacterium tuberculosis variant bovis BCG"}, "[3]": {"system": "h. Lung", "assay": "Cell Tox (h. Lung)", "details": "h. Lung cells"}, "[4]": {"system": "m. Embryo", "assay": "Cell Tox (m. Embryo)", "details": "m. Embryo cells"}, "[5]": {"system": "h. Kidney", "assay": "Cell Tox (h. Kidney)", "details": "h. Kidney cells"}, "[6]": {"details": "read-out: IC50's for BCG growth"}}, "note": "pIC50: −log10 of the molar value. Structures can show the parent of a compound that is named as a salt. Where two headings read alike, the source gives them in different places.", "data": [{"smiles": "O=C(Cc1ccccc1F)NCCc1ccc(Cl)cc1", "note": "[Compound 1, N-[2-(4-Chlorophenyl)-ethyl]-2-(2-fluoro-phenyl)acetamide]", "values": [{"measurement": "inhibition at 40 µM", "setting": "[1]; Table 2", "value": 82, "unit": "%"}]}, {"smiles": "CCCC(=O)C1(c2ccccc2)CCN(C(=O)c2ccc3[nH]ccc3c2)CC1", "note": "[Compound 4, 1-[1-(1H-Indole-5-carbonyl)-4-phenyl-piperidin-4-yl]-butan-1-one]", "values": [{"measurement": "pIC50", "setting": "[1]", "value": 6.64}, {"measurement": "pIC50", "setting": "[2]; read-out: BCG Growth IC-50", "value": "< 4.60"}, {"measurement": "Cell Tox (h. Lung)", "setting": "[3]", "value": "33 to 50", "unit": "µM"}, {"measurement": "Cell Tox (m. Embryo)", "setting": "[4]", "value": "46 to 50", "unit": "µM"}, {"measurement": "Cell Tox (h. Kidney)", "setting": "[5]", "value": "23 to 48", "unit": "µM"}]}, {"smiles": "O=C(c1ccc(Cl)cc1)C1CCN(C(=O)c2ccc3[nH]ccc3c2)CC1", "note": "[Compound 5, [4-(4-Chlorobenzoyl)-piperidin-1-yl]-(1H-indol-5-yl)-methanone]", "values": [{"measurement": "inhibition at 40 µM", "setting": "[1]; Table 6", "value": 97, "unit": "%"}]}, {"smiles": "O=C(c1ccc2[nH]ccc2c1)N1CCN(c2ccc(Cl)cc2)CC1", "note": "[Compound 56]", "values": [{"measurement": "pIC50", "setting": "[1]", "value": 5.38}]}, {"smiles": "Cc1ccc(Cl)cc1N1CCN(C(=O)c2ccc3[nH]ccc3c2)CC1", "note": "[Compound 57]", "values": [{"measurement": "pIC50", "setting": "[1]", "value": 5.98}]}, {"smiles": "O=C(c1ccc2[nH]ccc2c1)N1CCN(c2cccc(Cl)c2)CC1", "note": "[Compound 58]", "values": [{"measurement": "pIC50", "setting": "[1]", "value": 5.92}]}, {"smiles": "O=C(c1ccc2[nH]ccc2c1)N1CCN(c2cccc(C(F)(F)F)c2)CC1", "note": "[Compound 59]", "values": [{"measurement": "pIC50", "setting": "[1]", "value": 5.72}]}, {"smiles": "O=C(c1ccc2[nH]ccc2c1)N1CCN(C2c3ccccc3-c3ccccc32)CC1", "note": "[Compound 70]", "values": [{"measurement": "pIC50", "setting": "[2]; read-out: BCG Growth IC-50", "value": 5.08}, {"measurement": "Cell Tox (h. Lung)", "setting": "[3]", "value": "24 to 48", "unit": "µM"}, {"measurement": "Cell Tox (m. Embryo)", "setting": "[4]", "value": "46 to 52", "unit": "µM"}, {"measurement": "Cell Tox (h. Kidney)", "setting": "[5]", "value": "35 to 44", "unit": "µM"}]}, {"smiles": "O=C(c1ccc2[nH]ccc2c1)N1CCN(C2c3ccccc3-c3ccc([N+](=O)[O-])cc32)CC1", "note": "(stereo not shown) [Compound 71]", "values": [{"measurement": "pIC50", "setting": "[1]; Table 9, read-out: InhA IC-50", "value": 6.92}, {"measurement": "pIC50", "setting": "[2]; read-out: BCG Growth IC-50", "value": 5.08}, {"measurement": "Cell Tox (h. Lung)", "setting": "[3]", "value": 37, "unit": "µM"}, {"measurement": "Cell Tox (m. Embryo)", "setting": "[4]", "value": 23, "unit": "µM"}, {"measurement": "Cell Tox (h. Kidney)", "setting": "[5]", "value": 28, "unit": "µM"}]}, {"smiles": "O=C(c1ccc2[nH]ccc2c1)N1CCN(C2c3ccccc3-c3cc([N+](=O)[O-])ccc32)CC1", "note": "(stereo not shown) [Compound 72]", "values": [{"measurement": "pIC50", "setting": "[1]; Table 9, read-out: InhA IC-50", "value": 6.89}, {"measurement": "pIC50", "setting": "[2]; read-out: BCG Growth IC-50", "value": 5.55}, {"measurement": "Cell Tox (h. Lung)", "setting": "[3]", "value": 34, "unit": "µM"}, {"measurement": "Cell Tox (m. Embryo)", "setting": "[4]", "value": 23, "unit": "µM"}, {"measurement": "Cell Tox (h. Kidney)", "setting": "[5]", "value": 29, "unit": "µM"}]}, {"smiles": "O=C(c1ccc2[nH]ccc2c1)N1CCN(C2c3cc(Br)ccc3-c3ccc(Br)cc32)CC1", "note": "[Compound 73]", "values": [{"measurement": "pIC50", "setting": "[1]; Table 9, read-out: InhA IC-50", "value": 6.92}, {"measurement": "pIC50", "setting": "[2]; read-out: BCG Growth IC-50", "value": 5.21}]}, {"smiles": "CC[C@@H](CO)NCCN[C@@H](CC)CO", "note": "[ethambutol, ethambutol dihydrochloride]", "values": [{"measurement": "pIC50", "setting": "[2]; read-out: BCG Growth IC-50", "value": 5.00}, {"measurement": "pIC50", "setting": "[2]; [6]", "value": 5.00}]}, {"smiles": "NNC(=O)c1ccncc1", "note": "[isoniazid, isonicotinic acid hydrazide]", "values": [{"measurement": "pIC50", "setting": "[2]; read-out: BCG Growth IC-50", "value": 5.52}, {"measurement": "pIC50", "setting": "[2]; [6]", "value": 5.52}]}, {"smiles": "CCCCCCCCCCCCCCCC(=O)SCCNC(=O)CCNC(=O)[C@H](O)C(C)(C)COP(=O)(O)OP(=O)(O)OC[C@H]1O[C@@H](n2cnc3c(N)ncnc32)[C@H](O)[C@@H]1OP(=O)(O)O", "note": "[palmitoyl-CoA, reference compound]", "values": [{"measurement": "inhibition at 375 µM", "setting": "[1]; at 375 uM, read-out: inhibition by internal standard", "value": "~40", "unit": "%"}]}, {"smiles": "CO[C@H]1/C=C/O[C@@]2(C)Oc3c(C)c(O)c4c(O)c(c(/C=N/N5CCN(C)CC5)c(O)c4c3C2=O)NC(=O)/C(C)=C\\C=C\\[C@H](C)[C@H](O)[C@@H](C)[C@@H](O)[C@@H](C)[C@H](OC(C)=O)[C@@H]1C", "note": "[rifampicin]", "values": [{"measurement": "pIC50", "setting": "[2]; read-out: BCG Growth IC-50", "value": 8.00}, {"measurement": "pIC50", "setting": "[2]; [6]", "value": 8.00}]}]}
